In ChEMBL document CHEMBL1129603, “Synthesis and biological activity of metabolites of the antidiabetic, antihyperglycemic agent pioglitazone” (1996) one finds T/C data, which are given here for six molecules.

The species entered for this test is Mus musculus. Put plainly: Compound was evaluated for Antihyperglycemic activity in KKAy mice, glucose level for the treated group (T) over the anti-hyperglycaemic activity. Type of test: functional.
With `CC(=O)c1ccc(CCOc2ccc(CC3SC(=O)NC3=O)cc2)nc1` (stereo unspecified), the T/C came to 0.74. Molecule `CCc1ccc(C(O)COc2ccc(CC3SC(=O)NC3=O)cc2)nc1` (stereo unspecified) had a T/C of 0.78. In the case of `O=C(O)Cc1ccc(CCOc2ccc(CC3SC(=O)NC3=O)cc2)nc1` (stereo unspecified) it was 0.91; in that of `CC(O)c1ccc(CCOc2ccc(CC3SC(=O)NC3=O)cc2)nc1` (stereo unspecified) [LERIGLITAZONE], 0.74; in that of `CCc1ccc(C(=O)COc2ccc(CC3SC(=O)NC3=O)cc2)nc1` (stereo unspecified) [MITOGLITAZONE], 0.39. In the case of `CCc1ccc(CCOc2ccc(CC3SC(=O)NC3=O)cc2)nc1` (stereo unspecified) [PIOGLITAZONE] it was 0.49.
